The values below are quoted from earlier work in US10159715B2, “Method for treating diabetes comprising long-acting insulin analogue conjugate and long-acting insulinotropic peptide conjugate” (HANMI PHARM. CO., LTD., priority 2014, dated 2018).

Series [1] deals with type 2 diabetes-induced rodent model.
For series [2] the following is noted: in vivo.

Regarding “GLP-1: incretin hormone secreted by L-cells of the ileum and colon; insulinotropic peptide”, the “growth and differentiation of the beta cells / beta cell mass” value in series [1] is recorded as “increasing the beta cell mass”. Further, the half-life in blood entry in series [2] was “less than 2 minutes”.
